Data published in patent publication US20100063085A1, “METHOD OF TREATING LEARNING IMPAIRMENT IN DOWN'S SYNDROME SUBJECTS” (University Court of The University of Dundee, priority 2008, published 2010).
Read-outs that look alike come from different tables or passages of the source.

Legend:
Assay type in all cases: biochemical
PRK2 = PRK2 (Homo sapiens, UniProt Q16513); test: PRK2 33P kinase assay; details: read-out: PRK2 activity as percentage of control without inhibitor
Protocol: (§1) All assays (25.5 μl) were carried out at room temperature (21° C.) and were linear with respect to time and enzyme concentrations under the conditions used. Assays were performed for 30 minutes except assays for LCK and PKB which were performed for 15 minutes using Multidrop Micro reagent dispensers (Thermo Electron Corporation, Waltham, Mass. 02454, USA) in a 96-well format. The concentration of […] [γ-^33P] ATP (800 cpm/pmol) in the assays was one of three concentrations (5, 20 or 50 μM) in order to be at or below Km for ATP for the enzyme. Assays were initiated with MgATP and stopped by addition of 5 μl of 0.5M orthophosphoric acid. Assays were then harvested onto P81 filterplates using a unifilter harvester (PerkinElmer, Boston, Mass. 02118, USA), with a wash buffer of 50 mM orthophosphoric acid. Filterplates were then air dried overnight. 10 μl of Microscint O was added per well prior to counting for radioactivity.
(§2) MKK1, JNK/SAPK1c, SAPK2a/p38, SAPK2b/p38β2, SAPK3/p38γ, SAPK4/p38δ, MAPK2/ERK2, MAPKAP-K1β, MAPKAP-K2, MSK1, PRAK, PKA, PKCα, PDK1, SGK, p70S6K, GSK3β, ROCK-II, PRK2, AMPK, CHK1, CHK2, CK2, PHK, LCK, were assayed according to Davies et al., (Davies, S. P., Reddy, H., Caivano, M. and Cohen, P. Biochem. J. 351, 95-105, 2000.
(§3) CSK and CDK2/cyclinA, were assayed according to Bain et al. (Bain J, McLauchlan H, Elliott M, Cohen P. Biochem J. 371, 199-204, 2003., except that ATP concentrations were either 5, 20 or 50 micromolar so that they were at or below the Km for ATP. The ATP concentrations used were as follows, 5 μM for assays of MKK1, SAPK3, SAPK4, GSK3β, PRK2 CK2 20 μm for assays of JNK, SAPK2β, MAPKAP-K2, MSK1, PRAK, PKA, […], PDK1, SGK, p70S6K, ROCK-II, CHK1, CHK2, CSK, CDK2, and 50 μM for assays of SAPK2a, MAPK2/ERK2, AMPK, LCK, PHK and MAPKAP-K1β.
(§4) The following kinases were assayed against the substrates indicated. Aurora B was assayed against the substrate peptide […] (300 μM), ERK8 and MST-2 were both assayed against MBP (0.33 mg/ml). IKKβ was assayed against the substrate peptide […] (300 μM), JNK3 was assayed against 3 μM ATF2[19-96]. MAPKAP-K3 and PKD1 were both assayed against […] (30 μM), MARK3 was assayed against CHKtide ([…]) substrate peptide (300 μM). MNK1 and MNK2 were both assayed against eIF4E protein (0.5 mg/ml). NEK7 was assayed against […] (300 μM), PIM2 was assayed against […] (300 μM), ΔPH PKBβ-S474D was assayed against Crosstide (30 μM), PLK1 was assayed against […] (300 μM). PRK2 was assayed against Long S6 peptide, […] (30 μM), RSK2 was assayed against […] (30 μM), SRC was assayed against cdc2 peptide, […], (300 μM) and SRPK1 was assayed against peptide […] (300 μM). All enzymes were diluted in 50 mM Tris/HCl pH 7.5, 0.1 mM EGTA, 1 mg/ml BSA, 0.1% β-mercaptoethanol buffer and assayed in an incubation containing 50 mM Tris/HCl pH7.5, 0.1 mM EGTA, 0.1% β-mercaptoethanol, CAMK-1 (5-20 mU) diluted in 50 mM Tris/HCl pH 7.5, 0.1 mM EGTA, 1 mg/ml BSA, 0.1% β-mercaptoethanol is assayed against substrate peptide […] in an incubation containing 50 mM Tris/HCl pH 7.5, 0.1 mM EGTA, 0.5 mM CaCl2, 0.3 μM calmodulin, 0.1% β-mereaptoethanol, 300 μM substrate peptide, 10 mM magnesium acetate and 0.05 mM [^33P-γ-ATP] (500-1000 cpm/pmole). EF2K (5-20 mU) diluted in 50 mM Hepes pH 6.6, 0.1% β-mercaptoethanol, 1 mg/ml BSA is assayed against a substrate peptide […] in an incubation containing 50 mM Hepes pH 6.6, 0.2 mM CaCl2, 0.3 μM Calmodulin, 0.05% b-mercaptoethanol, 300 μM substrate peptide, 10 mM magnesium acetate and 0.05 mM [^33P-γ-ATP] (500-1000 cpm/pmole).

PKBΔph = PKBΔph 33P kinase assay
Protocol: as §1

MAPKAP-K1a = MAPKAP-K1a (Homo sapiens, UniProt Q15418); test: MAPKAP-K1a 33P kinase assay; details: read-out: MAPKAP-K1a activity as percentage of control without inhibitor
Chain of MAPKAP-K1a (Q15418 whole entry, species assumed): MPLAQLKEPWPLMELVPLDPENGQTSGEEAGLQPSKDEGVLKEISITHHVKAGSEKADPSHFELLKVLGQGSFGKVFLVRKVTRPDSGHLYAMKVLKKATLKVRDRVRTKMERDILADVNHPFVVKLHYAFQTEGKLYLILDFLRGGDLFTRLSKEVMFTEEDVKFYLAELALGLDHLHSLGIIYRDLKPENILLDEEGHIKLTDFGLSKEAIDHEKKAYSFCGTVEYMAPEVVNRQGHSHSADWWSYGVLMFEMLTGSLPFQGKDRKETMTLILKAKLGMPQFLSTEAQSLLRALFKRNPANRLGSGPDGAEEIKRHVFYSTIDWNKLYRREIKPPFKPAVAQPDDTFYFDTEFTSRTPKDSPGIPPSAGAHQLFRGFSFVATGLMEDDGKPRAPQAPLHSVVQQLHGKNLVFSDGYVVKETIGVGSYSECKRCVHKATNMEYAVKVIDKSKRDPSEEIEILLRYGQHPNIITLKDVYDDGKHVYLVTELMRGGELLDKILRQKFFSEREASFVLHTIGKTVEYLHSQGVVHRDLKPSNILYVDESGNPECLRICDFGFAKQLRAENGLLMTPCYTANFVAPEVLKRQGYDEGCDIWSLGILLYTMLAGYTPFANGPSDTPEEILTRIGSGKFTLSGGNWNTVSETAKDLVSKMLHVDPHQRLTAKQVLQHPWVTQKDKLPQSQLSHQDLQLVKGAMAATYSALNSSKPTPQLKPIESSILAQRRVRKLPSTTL
Protocol: as §1
MAPKAP-K1a (5-20 mU diluted in 20 mM MOPS pH 7.5, 1 mM EDTA, 0.01% Brij35, 5% glycerol, 0.1% β-mercaptoethanol, 1 mg/ml BSA) is assayed against […] in a final volume of 25.5 μl containing 50 mM Na-β-glycerophosphate pH 7.5, 0.5 mM EDTA, 30 μM substrate peptide, 10 mM magnesium acetate and 0.05 mM [33P- γATP] (50-1000 cpm/pmole) and incubated for 40 min at room temperature.

PLK1 = PLK1 (Homo sapiens, UniProt P53350); test: PLK1 33P kinase assay; details: read-out: PLK1 activity as percentage of control without inhibitor
Chain of PLK1 (P53350 whole entry, species assumed): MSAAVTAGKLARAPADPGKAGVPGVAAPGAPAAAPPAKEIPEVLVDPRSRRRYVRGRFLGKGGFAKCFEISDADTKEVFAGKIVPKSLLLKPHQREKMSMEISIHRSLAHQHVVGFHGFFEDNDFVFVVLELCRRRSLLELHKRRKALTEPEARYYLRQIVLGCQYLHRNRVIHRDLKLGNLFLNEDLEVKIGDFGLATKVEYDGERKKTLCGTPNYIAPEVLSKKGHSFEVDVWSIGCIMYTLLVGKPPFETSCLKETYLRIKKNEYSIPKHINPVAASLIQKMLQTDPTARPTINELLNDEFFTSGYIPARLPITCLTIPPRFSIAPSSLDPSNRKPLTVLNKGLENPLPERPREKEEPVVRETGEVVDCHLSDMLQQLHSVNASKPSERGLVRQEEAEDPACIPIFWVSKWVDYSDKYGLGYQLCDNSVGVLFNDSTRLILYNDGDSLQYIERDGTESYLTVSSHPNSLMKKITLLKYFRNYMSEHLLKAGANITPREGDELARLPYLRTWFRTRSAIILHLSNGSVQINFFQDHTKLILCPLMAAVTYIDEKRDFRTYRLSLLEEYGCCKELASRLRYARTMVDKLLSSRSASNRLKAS
Protocol: as §1, §4

MAPKAP-K2 = MAPKAP-K2 (Homo sapiens, UniProt P49137); test: MAPKAP-K2 33P kinase assay; details: read-out: MAPKAP-K2 activity as percentage of control without inhibitor
Chain of MAPKAP-K2 (P49137 whole entry, species assumed): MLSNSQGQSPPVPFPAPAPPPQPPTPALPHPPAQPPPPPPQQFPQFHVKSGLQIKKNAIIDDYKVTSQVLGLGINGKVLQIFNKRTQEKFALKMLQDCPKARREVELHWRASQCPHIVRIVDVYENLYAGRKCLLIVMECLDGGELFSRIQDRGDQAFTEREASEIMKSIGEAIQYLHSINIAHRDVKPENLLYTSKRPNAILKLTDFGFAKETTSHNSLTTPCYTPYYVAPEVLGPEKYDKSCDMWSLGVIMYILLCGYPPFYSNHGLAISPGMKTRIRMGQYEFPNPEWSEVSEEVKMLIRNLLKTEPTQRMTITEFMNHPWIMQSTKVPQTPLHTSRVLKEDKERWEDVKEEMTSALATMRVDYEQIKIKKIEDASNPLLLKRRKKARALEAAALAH
Protocol: as §1, §2, §3

GSK3b = GSK3b (Homo sapiens, UniProt P49841); test: GSK3b 33P kinase assay; details: read-out: GSK3b activity as percentage of control without inhibitor
Chain of GSK3b (P49841 whole entry, species assumed): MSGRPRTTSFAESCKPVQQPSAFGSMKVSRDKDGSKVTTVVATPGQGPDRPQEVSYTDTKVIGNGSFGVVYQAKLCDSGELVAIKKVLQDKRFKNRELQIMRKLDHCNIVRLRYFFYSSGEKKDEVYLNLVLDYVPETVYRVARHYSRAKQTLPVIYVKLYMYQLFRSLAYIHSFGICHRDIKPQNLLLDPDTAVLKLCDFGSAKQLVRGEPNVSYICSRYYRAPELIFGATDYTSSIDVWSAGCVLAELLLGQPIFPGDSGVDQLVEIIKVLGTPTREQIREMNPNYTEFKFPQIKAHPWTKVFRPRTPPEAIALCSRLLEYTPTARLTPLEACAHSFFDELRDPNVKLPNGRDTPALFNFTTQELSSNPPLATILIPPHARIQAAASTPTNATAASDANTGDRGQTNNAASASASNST
Protocol: as §1, §2, §3

ROCK-II = ROCK-II (Homo sapiens, UniProt O75116); test: ROCK-II 33P kinase assay; details: read-out: ROCK-II activity as percentage of control without inhibitor
Chain of ROCK-II (O75116 whole entry, species assumed): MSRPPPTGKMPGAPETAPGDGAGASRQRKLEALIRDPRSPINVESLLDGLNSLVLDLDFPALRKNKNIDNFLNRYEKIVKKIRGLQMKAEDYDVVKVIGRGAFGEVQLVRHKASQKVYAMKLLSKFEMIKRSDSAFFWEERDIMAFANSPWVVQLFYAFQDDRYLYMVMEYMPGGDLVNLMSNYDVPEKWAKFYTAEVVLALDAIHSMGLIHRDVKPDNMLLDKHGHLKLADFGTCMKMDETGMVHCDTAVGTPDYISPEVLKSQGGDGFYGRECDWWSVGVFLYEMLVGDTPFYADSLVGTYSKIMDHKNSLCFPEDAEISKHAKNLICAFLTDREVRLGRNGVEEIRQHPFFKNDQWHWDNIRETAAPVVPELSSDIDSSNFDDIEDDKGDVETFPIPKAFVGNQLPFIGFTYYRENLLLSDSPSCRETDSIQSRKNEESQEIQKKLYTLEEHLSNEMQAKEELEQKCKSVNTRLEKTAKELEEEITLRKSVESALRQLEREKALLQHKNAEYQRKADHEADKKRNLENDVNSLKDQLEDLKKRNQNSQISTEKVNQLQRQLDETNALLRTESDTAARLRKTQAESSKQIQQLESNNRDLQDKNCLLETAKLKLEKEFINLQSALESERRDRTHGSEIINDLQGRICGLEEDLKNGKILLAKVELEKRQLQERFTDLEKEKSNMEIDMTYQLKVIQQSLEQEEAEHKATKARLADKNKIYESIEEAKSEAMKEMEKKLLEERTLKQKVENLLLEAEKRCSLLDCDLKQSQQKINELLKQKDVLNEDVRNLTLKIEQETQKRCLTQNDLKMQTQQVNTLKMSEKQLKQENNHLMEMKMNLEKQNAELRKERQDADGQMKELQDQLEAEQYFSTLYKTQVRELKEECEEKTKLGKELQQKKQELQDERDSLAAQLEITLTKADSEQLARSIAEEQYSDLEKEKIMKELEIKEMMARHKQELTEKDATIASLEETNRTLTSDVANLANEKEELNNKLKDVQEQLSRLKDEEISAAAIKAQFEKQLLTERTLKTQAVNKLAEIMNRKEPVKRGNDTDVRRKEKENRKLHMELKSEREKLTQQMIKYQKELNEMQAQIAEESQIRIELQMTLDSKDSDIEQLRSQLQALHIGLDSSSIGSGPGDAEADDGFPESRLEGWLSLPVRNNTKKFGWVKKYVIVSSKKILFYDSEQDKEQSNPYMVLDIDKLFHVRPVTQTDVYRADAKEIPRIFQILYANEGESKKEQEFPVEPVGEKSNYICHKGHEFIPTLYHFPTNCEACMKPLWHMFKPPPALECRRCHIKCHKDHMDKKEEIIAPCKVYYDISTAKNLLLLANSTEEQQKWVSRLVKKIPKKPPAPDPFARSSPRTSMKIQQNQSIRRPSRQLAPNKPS
Protocol: as §1, §2, §3

p70 S6K = p70 S6K (Homo sapiens, UniProt P23443); test: p70 S6K 33P kinase assay; details: read-out: p70 S6K activity as percentage of control without inhibitor; for remaining activity at 1 µM: inhibitor 1 μM; for remaining activity at 10 µM: inhibitor 10 μM
Chain of p70 S6K (P23443 whole entry): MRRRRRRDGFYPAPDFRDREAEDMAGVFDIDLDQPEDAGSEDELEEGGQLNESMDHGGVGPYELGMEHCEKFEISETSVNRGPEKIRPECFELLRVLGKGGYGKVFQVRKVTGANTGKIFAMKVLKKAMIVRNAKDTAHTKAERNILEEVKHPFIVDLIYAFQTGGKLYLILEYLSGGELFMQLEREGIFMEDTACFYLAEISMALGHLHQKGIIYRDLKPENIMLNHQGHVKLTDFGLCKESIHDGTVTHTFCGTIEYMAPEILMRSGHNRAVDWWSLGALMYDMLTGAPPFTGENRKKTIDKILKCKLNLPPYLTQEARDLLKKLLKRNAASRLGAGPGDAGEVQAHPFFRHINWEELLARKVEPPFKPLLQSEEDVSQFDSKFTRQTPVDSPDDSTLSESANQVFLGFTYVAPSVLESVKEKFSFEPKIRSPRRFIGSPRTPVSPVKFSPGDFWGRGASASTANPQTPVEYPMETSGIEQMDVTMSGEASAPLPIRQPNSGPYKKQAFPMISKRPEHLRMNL
Protocol: as §1, §2, §3

Chain of PRK2 (Q16513 whole entry, species assumed): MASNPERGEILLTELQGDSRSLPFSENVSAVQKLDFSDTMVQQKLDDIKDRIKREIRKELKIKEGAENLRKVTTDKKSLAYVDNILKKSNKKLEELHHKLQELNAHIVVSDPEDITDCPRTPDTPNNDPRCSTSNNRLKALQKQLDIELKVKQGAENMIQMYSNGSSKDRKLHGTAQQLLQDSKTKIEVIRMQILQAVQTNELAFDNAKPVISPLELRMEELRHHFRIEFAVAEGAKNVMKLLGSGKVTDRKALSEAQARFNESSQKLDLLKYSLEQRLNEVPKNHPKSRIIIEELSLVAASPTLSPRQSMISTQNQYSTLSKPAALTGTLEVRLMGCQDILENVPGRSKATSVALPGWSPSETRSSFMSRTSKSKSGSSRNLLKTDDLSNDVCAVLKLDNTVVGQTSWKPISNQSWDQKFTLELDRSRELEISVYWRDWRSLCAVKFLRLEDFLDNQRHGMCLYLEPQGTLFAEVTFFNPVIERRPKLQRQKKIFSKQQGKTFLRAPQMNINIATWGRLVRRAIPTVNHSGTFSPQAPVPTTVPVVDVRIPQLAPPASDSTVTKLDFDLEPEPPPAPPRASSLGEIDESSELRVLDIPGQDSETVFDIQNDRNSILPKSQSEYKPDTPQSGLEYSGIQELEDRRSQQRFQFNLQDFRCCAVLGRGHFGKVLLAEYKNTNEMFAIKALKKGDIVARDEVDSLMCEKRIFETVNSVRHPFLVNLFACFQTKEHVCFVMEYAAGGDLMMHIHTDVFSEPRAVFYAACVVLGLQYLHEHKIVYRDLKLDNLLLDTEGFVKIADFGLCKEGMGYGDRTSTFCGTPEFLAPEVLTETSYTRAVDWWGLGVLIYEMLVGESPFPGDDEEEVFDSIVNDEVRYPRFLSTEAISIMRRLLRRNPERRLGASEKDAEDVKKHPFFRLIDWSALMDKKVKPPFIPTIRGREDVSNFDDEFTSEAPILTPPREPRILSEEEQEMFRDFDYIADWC

| SMILES | PKBΔph activity as percentage of control without inhibitor (PKBΔph; inhibitor 1 μM) [%] | PKBΔph activity as percentage of control without inhibitor (PKBΔph; inhibitor 10 μM) [%] | remaining activity at 1 µM (GSK3b) [%] | remaining activity at 10 µM (GSK3b) [%] | remaining activity at 1 µM (p70 S6K) [%] | remaining activity at 10 µM (p70 S6K) [%] | remaining activity at 1 µM (PRK2; inhibitor 1 μM) [%] | remaining activity at 10 µM (PRK2; inhibitor 10 μM) [%] | remaining activity at 1 µM (MAPKAP-K1a; inhibitor 1 μM) [%] | remaining activity at 10 µM (MAPKAP-K1a; inhibitor 10 μM) [%] | remaining activity at 1 µM (PLK1; inhibitor 1 μM) [%] | remaining activity at 10 µM (PLK1; inhibitor 10 μM) [%] | remaining activity at 1 µM (MAPKAP-K2; inhibitor 1 μM) [%] | remaining activity at 10 µM (MAPKAP-K2; inhibitor 10 μM) [%] | remaining activity at 1 µM (ROCK-II; inhibitor 1 μM) [%] | remaining activity at 10 µM (ROCK-II; inhibitor 10 μM) [%] | also measured |
| --- | --- | --- | --- | --- | --- | --- | --- | --- | --- | --- | --- | --- | --- | --- | --- | --- | --- |
| COc1ccc2c(c1)[nH]c1c(C)nccc12 [Harmine] | 107 | 107 | 82 | 72 | 90 | 93 |  |  |  |  |  |  |  |  |  |  | remaining activity at 1 µM (PRK2): 82%; remaining activity at 10 µM (PRK2): 45%; remaining activity at 1 µM (MAPKAP-K1a): 105%; remaining activity at 10 µM (MAPKAP-K1a): 92%; remaining activity at 1 µM (PLK1): 92%; remaining activity at 10 µM (PLK1): 87%; remaining activity at 1 µM (MAPKAP-K2): 78%; remaining activity at 10 µM (MAPKAP-K2): 82%; remaining activity at 1 µM (ROCK-II): 84%; remaining activity at 10 µM (ROCK-II): 61% |
| COc1ccc2c3c([nH]c2c1)C(C)=NCC3 [Harmaline] | 80 | 98 | 77 | 82 | 71 | 83 | 97 | 83 | 98 | 90 | 92 | 100 | 104 | 112 | 99 | 81 |  |
| CC1=NCCc2c1[nH]c1cc(O)ccc21 [Harmalol] | 92 | 58 |  |  | 95 | 69 | 86 | 54 | 101 | 85 | 88 | 81 | 79 | 69 | 96 | 81 | remaining activity at 1 µM (GSK3b; inhibitor 1 μM): 90%; remaining activity at 10 µM (GSK3b; inhibitor 10 μM): 73% |
